Source: the supplement of paper PMC13380429

Experiments:
Settings in all cases: 72 h
Vero E6 [1] = test: cell viability relative to DMSO; higher = less toxic
U2OS [2] = test: as above
HepG2 [3] = test: as above
Caco-2 [4] = test: as above
Calu-3 [5] = test: as above
Vero E6 [6] = test: relative viability EC50 (midpoint between 100% and the lowest measured viability); higher = less toxic
U2OS [7] = test: as above
HepG2 [8] = test: as above
Caco-2 [9] = test: as above
Calu-3 [10] = test: as above
Vero E6 [11] = test: drug sensitivity score (DSS) for viability; higher = more toxic; extreme values may be limits of the assay
U2OS [12] = test: as above
HepG2 [13] = test: as above
Caco-2 [14] = test: as above
Calu-3 [15] = test: as above

SMILES	cell viability (Vero E6 [1]; 1 nM) [%]	cell viability (Vero E6 [1]; 10 nM) [%]	cell viability (Vero E6 [1]; 100 nM) [%]	cell viability (Vero E6 [1]; 1000 nM) [%]	cell viability (Vero E6 [1]; 10000 nM) [%]	cell viability (U2OS [2]; 1 nM) [%]	cell viability (U2OS [2]; 10 nM) [%]	cell viability (U2OS [2]; 100 nM) [%]	cell viability (U2OS [2]; 1000 nM) [%]	cell viability (U2OS [2]; 10000 nM) [%]	cell viability (HepG2 [3]; 1 nM) [%]	cell viability (HepG2 [3]; 10 nM) [%]	cell viability (HepG2 [3]; 100 nM) [%]	cell viability (HepG2 [3]; 1000 nM) [%]	cell viability (HepG2 [3]; 10000 nM) [%]	cell viability (Caco-2 [4]; 1 nM) [%]	cell viability (Caco-2 [4]; 10 nM) [%]	cell viability (Caco-2 [4]; 100 nM) [%]	cell viability (Caco-2 [4]; 1000 nM) [%]	cell viability (Caco-2 [4]; 10000 nM) [%]	cell viability (Calu-3 [5]; 1 nM) [%]	cell viability (Calu-3 [5]; 10 nM) [%]	cell viability (Calu-3 [5]; 100 nM) [%]	cell viability (Calu-3 [5]; 1000 nM) [%]	cell viability (Calu-3 [5]; 10000 nM) [%]	relative viability EC50 (Vero E6 [6]) [µM]	relative viability EC50 (U2OS [7]) [µM]	relative viability EC50 (HepG2 [8]) [µM]	relative viability EC50 (Caco-2 [9]) [µM]	relative viability EC50 (Calu-3 [10]) [µM]	drug sensitivity score (Vero E6 [11])	drug sensitivity score (U2OS [12])	drug sensitivity score (HepG2 [13])	drug sensitivity score (Caco-2 [14])	drug sensitivity score (Calu-3 [15])
Cc1ccc(-c2cc(C(F)(F)F)nn2-c2ccc(S(N)(=O)=O)cc2)cc1 [celecoxib]	101	85.4	102	94.1	104	92.4	99.6	92.4	97.7	98.4	115	98.4	99.3	100	95.1	99.1	79.8	105	90.6	103	99.4	100	98.2	101	114	> 10	> 10	> 10	> 10	> 10	0	0	0	0	0
O=C1CC[C@@H](C(=O)N2CSC[C@H]2C(=O)O)N1 [pidotimod]	97.8	101	94.8	101	107	93.9	93.3	101	99.9	106	98.4	101	101	105	106	102	91.6	106	102	92.7	97.4	104	97.3	96	102	> 10	> 10	> 10	> 10	> 10	0	0	0	0	0
CSc1ccccc1OCC(O)CNC(C)C (stereo not given) [tiprenolol]	100	98.5	98.6	91.8	86.7	97.9	96.2	106	101	99.3	98.6	92.6	102	99.9	98.5	108	102	93.6	83	113	104	106	100	97.3	103	> 10	> 10	> 10	> 10	> 10	0.3	0	0	0	0
CCOc1ccc(-n2c([C@@H](C)N(Cc3cccnc3)C(=O)Cc3ccc(F)c(C(F)(F)F)c3)nc3ncccc3c2=O)cc1 (racemic)	96	97.2	98.6	103	105	104	96	96.2	99.2	95.9	105	100	97.9	108	93.7	103	97.6	99.3	99.9	90	93.8	91	92.8	95.2	88.4	> 10	> 10	> 10	> 10	> 10	0	0	0	0	0
CCC1=C(C)CN(C(=O)NCCc2ccc(S(=O)(=O)NC(=O)N[C@H]3CC[C@H](C)CC3)cc2)C1=O [glimepiride]	111	110	105	91.9	95.3	98.9	99.2	97.7	99.8	92.1	83.1	90.7	104	98.7	104	87.2	94.3	98.9	91.4	76.2	98.6	104	91.7	104	98.6	> 10	> 10	> 10	> 10	> 10	0	0	0	1.8	0
CC(CNS(=O)(=O)C(C)C)c1ccc(-c2ccc(C#N)cc2)cc1 (stereo not given)	109	99.9	106	97.7	98.6	103	102	99.2	101	85.8	111	117	104	98.9	30.5	98	106	97.7	104	80.8	93.8	97.6	102	108	90.4	> 10	> 10	3.06	> 10	> 10	0	0.1	4	0.4	0
C[C@H]1N=C(N(C)C)N=C(N)N1 [imeglimin]	92.5	96.2	92.8	101	105	99.7	105	96.9	102	103	96.4	96.7	97.7	99	100	86.3	88	96.2	97.3	97.6	97	114	96.9	104	104	> 10	> 10	> 10	> 10	> 10	0	0	0	0	0
